Experimental data as given in patent publication US7439251B2, “Methods and compositions for treatment of central and peripheral nervous system disorders and novel compounds useful therefor” (Israel Institute for Biological Research, priority 2002, dated 2008).
Entries after “also recorded” stand apart in the source; their conditions may differ. Read-outs that look alike come from different tables or passages of the source.

Experiments:
[1] = system: ApoE; assay: ApoE synthesis and secretion in rat primary type 1 astrocytes; type: cell-based; details: 96 hrs; 0.1 nM
Method: Primary cultures of type 1 astrocytes were derived from the cortex of Sprague Dawley rats. The compounds tested were dissolved in the culture media and added to cells for 24, 48, 72 and 96 hrs. Media was then removed and kept frozen until ApoE protein levels were evaluated by immunoblot analysis as described in Poirier et al Neuroscience 55: 81-90 (1993).

[2] = Stability of 10% w/w AF150(S) in paraffin oil; type: physicochemical
Method: In another embodiment of the invention, AF150(S) is provided in pharmaceutical acceptable paraffin oil. […] Ph) was examined at 40° C. under air or nitrogen atmosphere, in the presence or absence tocopherol. Samples were analyzed after two months storage. TLC, […] and GC were used to detect and determine the quantity of possible degradation product(s). Color changes were determined in comparison with Paraffin oil with or without tocopherol under the same conditions. AF150(S) was stable in the paraffin oil formulation.

[3] = system: rat hippocampal neurons; assay: Survival, morphology and apoptosis of rat hippocampal neurons exposed to Aβ; type: cell-based
Method: (§1) This study was performed in rat hippocampal primary cell cultures using the methods described by Garrido J L et al. (FASEB J 2002; 16:1982).

[4] = Morris water maze in AF64A-injected rats; type: in vivo, rat
Method: AF64A or saline-injected (6 months old) Sprague-Dawley rats were tested in the Morris Water Maze (MWM) task. The paradigm used assesses spatial learning abilities in a reference memory regimen, and involves training (days 1-4), transfer test (Probe trial—day 4, 3 min following the last training trial) and reversal test (day 5).
Drugs and PBS were administered once a day for 5 days before starting the behavioral testing, and then for the duration of the 5-day experiment, 30 min before testing.
The three measures, escape latency, path length and swimming speed were analyzed by MANOVA, followed by simple main effects contrast analysis.

[5] = Chronic oral toxicity up to 13 weeks, dog
[6] = biological target: muscarinic receptors (QNB, rat cerebellar membranes) (Rattus norvegicus, UniProt P10980); details: read-out: QNB binding, Ki
[7] = system: Aβ / γ-secretase; assay: Aβ levels in primary rat cortical neurons infected with Semliki Forest virus encoding human APP695, C99 or C111; type: cell-based
Method: The mechanism of Aβ modulation was tested using C99 (and C111) that are truncated constructs generated from APP. Unlike APP, C99/C111 are direct substrates for γ-secretase. With both constructs it is possible to directly assay for γ-secretase activity, while with APP this is not possible. Both constructs are—as compared to APP—inefficient substrates for […]. Synergistc effects were also evaluated with CDX (methyl-β-cyclodextrin), an agent which extracts cholesterol from the plasma membrane. CDX inhibits also Aβ production CDX-treated cells were treated in addition to the respective muscarinic agonist for 5 min to reduce the cholesterol content.

[8] = system: β-catenin; assay: β-catenin levels in rat hippocampal neurons; type: cell-based; details: 100 μM; Aβ1-40 5 μM
Method: as §1

[9] = system: GSK-3β; assay: GSK-3β activity in rat hippocampal neurons; type: cell-based; details: 10 μM with Aβ fibrils 10 μM (fibrils alone 370%)
Method: as §1

[10] = system: Aβ; assay: CSF and cortical Aβ in nbm-lesioned (hypocholinergic) rabbits; type: in vivo, rabbit; details: vs lesioned saline controls
Source text: Twenty-eight female New Zealand White rabbits, about 2.5 kg each (young adults) were used. Twenty-one received lesions of the cholinergic nucleus basalis magnocellularis (nbm). The lesion was accomplished with unilateral i.c.v. injections of an immunotoxin consisting of the ribosomal toxin saporin conjugated to the monoclonal antibody MB20.4, which is directed against the low-affinity neurotophin receptor, p75. The ME20.4 antibody is made against monkey p 75 and also recognizes rabbit p75. The dose of immunotoxin was 32.4 μg in 12 μl; this was delivered to the right lateral ventricle 2 mm lateral to the bregma. Seven animals received i.c.v. injections of sterile normal saline (sham lesion). Animals which received the immunotoxin were divided into 3 groups of 7. […] Another group received physostigmine hemisalicylate in normal saline by s.c. osmotic pump at a daily dose of 3 mg/kg. The third group received twice-daily sterile saline s.c. injections. The animals which received a sham lesion were implanted with s.c. osmotic pumps filled with sterile normal saline. Animals were euthanized 4 weeks after surgery. […] Cerebrospinal fluid was taken from the cisterna magna of all animals at the time of sacrifice; the brain was removed and sliced coronally into 0.5 cm slices. […]

[11] = system: Adrenergic α1A, α1B, α2A, α2B, α2C, β1, β2; BZD peripheral; Clozapine; Dopamine D1, D2, D3; GABA A; Glutamate sites; Glycine; Histamine H1-H3; Nicotinic …; assay: Selectivity binding panel for AF267B
[12] = rat, in vivo, po
Method: This calculation was based on the brain weight (2 gr) vs. total plasma volume (14 ml).

[13] = pKa and free base fraction at CSF pH; details: pH 7.35 (CSF), calculated from pKa
Method: For such compounds at the relevant pH of 7.35, only 2.2% are in non-ionized form. […] This calculation was based on the brain weight (2 gr) vs. total plasma volume (14 ml).

[14] = system: Isolated Guinea Pig Right Atrium; assay: Isolated guinea pig right atrium
Method: (§2) • 1. Astemizole (human ether-a-go-go related gene (HERG) Channel) Binding Assay. […] Isolated Guinea Pig Right Atrium (atrial fibrillation). […] Effects of AF292 (dose 5 mg/kg orally) on cardiac electrophysiological, cardio-haemodynamic in instrumented, awake dogs. Healthy trained and chronically instrumented female Beagle dogs of varying age and ranging in body weight from 9.4 to 12 kg, were used for recording of the cardiovascular parameters: heart rate, diastolic and systolic blood pressure, pressure rate product, LV dp/dt max, LV dp/dt max/pd, LV dp/dt min, cardiac output, stroke volume, systemic vascular resistance and the ECG parameters (PQ-, QRS-, QT-, QTcBazett—(QTcB), QTcFridericia—(QTcF) and QTcVan de Water—(QTcVdW) interval duration and QT-dispersion. During the last 18 hours prior to the experiments, the dogs had no access to food. Water was available ad libitum. At the beginning of each experiment, control values of the various parameters were recorded for at least 30 min. Thereafter, 5 mg/kg of AF292 (n=4) or the corresponding volume of the solvent (n=4) was administered orally by gavage. The various haemodynamic parameters were recorded continuously for 4 hours thereafter.

[15] = biological target: T1, human M5 receptor (Homo sapiens, UniProt P08912); assay: Arachidonic acid (AA) release, human M5; type: cell-based
T1 construct: expressed in transfected cells

[16] = Cardiac electrophysiology and haemodynamics in instrumented awake dogs; type: in vivo, Beagle dog; details: 5 mg/kg orally, 4 hours
Method: as §2

[17] = biological target: T1, human M5 receptor; assay: PI hydrolysis, human M5; type: cell-based
[18] = biological target: M2 mAChR (Homo sapiens, UniProt P08172); assay: Intracellular Ca ions in modified cell cultures, M2; type: cell-based; details: 10^−9-10^−3M
[19] = system: Human α-glycoprotein (AGP); assay: Protein binding, human α-glycoprotein; type: in vitro ADME; details: 10 μM
Method: Protein binding studies were carried out in human plasma, α1-glycoprotein, human serum […] (HSA), and Dulbecco's Phosphate Buffered Saline (PBS). AF292 was added to a final concentration of 10 μM. […] (μM) and in human α-glycoprotein (AGP), (see Table 1).

T1 sequence (P08912 whole entry): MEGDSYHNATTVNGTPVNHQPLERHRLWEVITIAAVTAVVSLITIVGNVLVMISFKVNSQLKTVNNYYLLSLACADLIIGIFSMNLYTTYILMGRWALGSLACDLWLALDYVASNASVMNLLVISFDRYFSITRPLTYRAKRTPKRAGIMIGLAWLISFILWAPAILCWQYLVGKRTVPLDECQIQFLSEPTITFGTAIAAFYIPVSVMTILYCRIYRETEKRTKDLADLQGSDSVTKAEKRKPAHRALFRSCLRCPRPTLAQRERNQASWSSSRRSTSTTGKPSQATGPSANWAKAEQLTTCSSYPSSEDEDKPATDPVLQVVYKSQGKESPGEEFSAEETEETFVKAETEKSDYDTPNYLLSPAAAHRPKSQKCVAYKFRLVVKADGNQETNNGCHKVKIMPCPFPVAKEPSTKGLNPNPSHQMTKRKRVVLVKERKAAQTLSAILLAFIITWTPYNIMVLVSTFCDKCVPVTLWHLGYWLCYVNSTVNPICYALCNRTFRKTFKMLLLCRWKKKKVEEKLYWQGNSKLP
Chain of M2 mAChR (P08172 whole entry): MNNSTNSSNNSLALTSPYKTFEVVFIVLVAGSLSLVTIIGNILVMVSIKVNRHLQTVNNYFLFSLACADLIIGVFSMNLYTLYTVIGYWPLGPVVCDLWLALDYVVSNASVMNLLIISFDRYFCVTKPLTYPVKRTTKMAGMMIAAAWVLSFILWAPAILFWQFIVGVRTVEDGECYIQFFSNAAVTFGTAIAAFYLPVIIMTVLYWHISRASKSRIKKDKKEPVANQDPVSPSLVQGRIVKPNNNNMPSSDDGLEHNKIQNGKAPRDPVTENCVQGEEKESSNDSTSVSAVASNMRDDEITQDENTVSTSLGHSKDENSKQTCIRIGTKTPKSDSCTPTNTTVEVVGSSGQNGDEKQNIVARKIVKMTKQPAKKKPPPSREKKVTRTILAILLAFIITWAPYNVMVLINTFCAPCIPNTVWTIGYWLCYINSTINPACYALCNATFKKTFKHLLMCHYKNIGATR
Chain of muscarinic receptors (QNB, rat cerebellar membranes) (P10980 whole entry): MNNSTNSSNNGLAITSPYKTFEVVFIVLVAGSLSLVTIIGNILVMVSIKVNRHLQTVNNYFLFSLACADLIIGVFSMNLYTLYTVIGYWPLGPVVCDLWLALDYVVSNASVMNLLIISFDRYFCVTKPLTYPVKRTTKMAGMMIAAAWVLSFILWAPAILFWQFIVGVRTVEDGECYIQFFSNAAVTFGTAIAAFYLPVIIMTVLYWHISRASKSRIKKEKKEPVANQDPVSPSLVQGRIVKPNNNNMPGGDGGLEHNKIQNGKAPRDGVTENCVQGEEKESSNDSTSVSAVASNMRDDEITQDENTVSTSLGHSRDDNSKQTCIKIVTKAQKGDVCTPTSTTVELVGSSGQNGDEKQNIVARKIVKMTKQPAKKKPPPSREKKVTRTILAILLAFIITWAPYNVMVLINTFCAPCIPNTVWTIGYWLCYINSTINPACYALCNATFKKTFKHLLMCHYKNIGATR

Compound: CC1=NCC2(CCN(C)CC2)S1 [AF150(S), 2,8-Dimethyl-1-thia-3,8-diaza-spiro[4.5]dec-2-ene]
- inhibition of ApoE production [1]: to a lesser extent
- Stability in the paraffin oil formulation ([2]; 40° C., two months): stable
- Color change ([2]; samples containing 0.5% w/w tocopherol): color was not developed
- Color change ([2]; samples without tocopherol): slight yellow color

Compound: CC[C@@H]1SC2(CCN(C)CC2)NC1=O [AF267B, (S)-2-ethyl-8-methyl-1-thia-4,8-diaza-spiro[4.5]decan-3-one]
- survival and morphology of hippocampal neurons ([3]; 0.5-50 μM, compound alone): does not affect the survival and morphology
- neurites / dendritic shrinkage induced by Aβ1-40 ([3]; blocked by pirenzepine 10 nM): protected the neurons
- reversal test ([4]; AF64A rats, 1 mg/kg): tendency for improvement
- training, escape latency ([4]; AF64A rats, 1 mg/kg): tendency for improvement
- reversal test ([4]; AF64A rats, 3 mg/kg): tendency for impairment
- training performance ([4]; AF64A rats, 3 mg/kg): tended to impair performance
- learning (training) ([4]; AF64A rats, 0.3, 1, 3 mg/kg po): no significant effect on learning
- probe trial, escape latency ([4]; AF64A rats, all doses): complete spatial bias
- ECG (heart rate, P wave, P-Q, QRS, QT) ([5]; beagle dogs, oral, up to 13 weeks): no changes in the ECG
- dose at which (muscarinic) effects are seen ([5]; dog): > 9 mg/kg
- no-adverse-effect-level (NOAEL) ([5]; dog, po, up to 13 weeks): 6 to 9 mg/kg/day
- Ki [6]: 45.2 ± 10.8 µM
- reduction of the release of Aβ-like fragments (3-4 Kda) [7]: approximately 50%
- p3 fragment ([7]; 1 mM, vs control): complete loss
- Aβ with cholesterol lowering agent CDX ([7]; with CDX (5 mM)): undetectable Aβ levels
- Aβ1-40-induced degradation of soluble β-catenin [8]: prevented
- GSK-3β activity vs. control (100%) [9]: 150%
- CSF sAPPα bands [10]: no significant difference
- CSF Aβ (4 kDa band) ([10]; p=0.05): noticeable decrease
- binding to other receptors and enzymes [11]: no binding at all
- % of the compound found in the brain (Cmax brain/Cmax plasma) ([12]; female): 16%
- % of the compound found in the brain (Cmax brain/Cmax plasma) ([12]; male): 25%
- % of the compound in free base form [13]: 26.2%

Compound: CC[C@@H]1SC2(CCNCC2)NC1=O [AF292, (S)-2-Ethyl-1-thia-4,8-diaza-spiro[4.5]decan-3-one]
- contractile force [14]: no significant effect
- contractile rate ([14]; vs vehicle group): tended to slightly reduce
- AA release, agonist activity [15]: inactive as an agonist; also recorded: PI, AA: M5 mAChR - no effect as agonist
- hemodynamic or ECG parameters [16]: no statistically significant and relevant effect
- PI turnover, agonist activity [17]: PI, AA: M5 mAChR - no effect as agonist
- agonist activity at M2 mAChR [18]: inactive as an agonist; also recorded: M2 mAChR - no effects as agonist
- Protein Binding [19]: Human α-glycoprotein (AGP) = 0%
